From patent US20120034193A1, “TREATMENT OF NEUROTROPHIC FACTOR MEDIATED DISORDERS” (priority 2009, published 2012) come the findings set out here.

One data set deals with BDNF. Put plainly: BDNF protein in culture medium of rat cortical neurones exposed to β-amyloid. The settings on record: 10 μM pre-incubation 48 h, then β-amyloid 10 μg/ml 48 h. Format: cell-based. Here is the method:
Rat cortical neurones were cultured by modification of a method previously described (Eckenstein and Sofroniew, Journal of Neuroscience, 1983, 3, pp. 2286-2291). On day 8, the culture medium was changed to a medium containing vehicle (DMSO, 0.5%) or smilagenin or sarsasapogenin (10 μM). On day 10, rat primary cortical neurones were exposed to β-amyloid (10 μg/ml) for 48 h at 37° C. and the concentration of BDNF in the culture medium, the number of choline acetyltransferase (ChAT) positive cells, and the neurite outgrowth was measured (smilagenin only).

In a further data set the test system is Rat cortical neurones. The data set can be described thus: Neuritogenesis in cortical neurones. It is filed as cell-based. The settings on record: 24 h; for Neurones displaying neurites (%): control 39.35 ± 2.06. Here is the method: Rat cortical neurones were cultured by modification of a previously described method (Singer, et al., Neuroscience Letters, 1996, 212, pp. 13-16). Cells were cultured with sarsasapogenin, smilagenin, vehicle (DMSO 0.25%), GDNF, BDNF or NGF for 24 h. For each group, 15 pictures showing neurones displaying neurites were selected at random in each field, and for each neurone the longest neurite was measured. The neurite number was measured by counting the number of neurones displaying neurites, the number of neurones not displaying neurites and the number of total neurones in each field. Six fields per well were examined.
The results are shown in Table 15 below, expressed as the number of neurones with neurites per field as a percentage of the total number of neurones per field.

The test system of the next data set is Rat sensory neurones. Put plainly: Neuronal survival in sensory neurones. Format: cell-based, Wistar rat. The settings on record: 2 days. Here is the method: Rat sensory neurones were obtained from Wistar rat embryos on the 15th day of gestation. Cells were cultured at 37° C. in 5% CO2/95% air atmosphere. Following 2 days of culturing with sarsasapogenin, smilagenin, vehicle (DMSO, 0.25%) or NGF, sensory neurones were rinsed twice with PBS and fixed in paraformaldehyde (4%) in PBS for 30 min at 4° C. Cells were permeabilised with Triton X-100 (0.1%) and non-specific sites were saturated using foetal bovine serum. Prior to staining, cells were incubated for 2 h at room temperature with a mixture of primary antibodies: anti-neurofilament 68 and 200 in PBS containing foetal bovine serum 5%. Prior to washing, slides were demounted and the cells were washed twice with PBS for 5 min, placed in a dark room for 1 h and incubated with a secondary antibody: anti-mouse coupled with cyanine 3 (Cy3; 1/1600) and an anti-rabbit coupled with fluoroisothiocyanate (FITC; 1/200) in PBS containing foetal bovine serum (5%). Slides were washed twice with PBS for 5 min and mounted on coverslips using Mowiol, an antioxidative solution (9% w/v) in glycerol (22%) buffered with Tris/HCl ([…]; pH 8.5). Slides were left overnight at room temperature to harden and stored in light protected conditions. Slides were viewed using a DAPI/FITC/Cy3 triple filter microscope with a ×20 objective. A series of photographs per well were taken at random using a digital camera.

In data set [1] the test system is rat primary cortical neurones. The data set can be described thus: Inhibition of induced neurite outgrowth by K252a or PD98059. Conditions: 30 nM, 24 h. Format: cell-based. Here is the method: Cortical neurones were cultured as detailed above. Neurones were exposed to vehicle (DMSO, 0.25%) or K252a (100 nM) for 1 h. After 1 h, vehicle, sarsasapogenin, smilagenin (30 nM) or BDNF (1.85 nM) was added to the medium in the maintained presence of K252a. Following 24 h exposure to sarsasapogenin or smilagenin (30 nM), vehicle (DMSO, 0.25%) or BDNF (1.85 nM), the neurones were washed using phosphate-buffered saline (PBS) and fixed in glutaraldehyde (2.5%) in PBS. Photographs of 40-60 neurones expressing neurites were taken with a camera fixed on a microscope (objective ×20, Nikon). The neurite length was measured by an analysis of the photographs.
Cortical neurones were cultured as detailed above. Neurones were exposed to vehicle (DMSO, 0.25%) or PD98059 (10 μM) for 1 h. After 1 h, vehicle, smilagenin (30 nM) or BDNF (1.85 nM) was added to the medium in the maintained presence of PD98059. Following 24 h exposure to smilagenin (30 nM), vehicle (DMSO, 0.25%) or BDNF (1.85 nM), the neurones were washed using PBS and fixed in glutaraldehyde (2.5%) in PBS. Photographs of 40-60 neurones expressing neurites were taken with a camera fixed on a microscope (objective ×20, Nikon). The neurite length was measured by an analysis of the photographs.

For another data set, the system named is C57b1/6 RJ mice. Put plainly: Sciatic nerve crush model. It is filed as in vivo, Mouse. The settings on record: for Degenerated fibres (% of control): nerve crush alone 109.10 ± 2.65; for Recovery of nerve function as measured by CMAP parameters (amplitude, latency, duration): sarsasapogenin 3, smilagenin 0.3 and 3 mg/kg/day, oral gavage in oil, 6 weeks. From the text: The sciatic nerve crush model is a well characterised reversible model for motor neurone disease and post-traumatic nerve injuries (McMahon and Priestley, Current Opinion in Neurobiology, 1995, 5, pp. 616-624). The nerve damage is produced by mechanical pressure using haemostatic forceps, applied twice, 5 mm proximal to the trifurcation of the right sciatic nerve of these mice. […] The loss of nerve function recovers progressively over a 4-5 week period after the mechanical insult.
4-Methylcatechol (10 μg/kg/day, i.p.) was used as a positive control (Kaechi et al., Journal of Phamacology and Experimental Therapeutics, 1995, 272, pp. 1300-1304).
C57b1/6 RJ mice were anaesthetised with ketamine chlorhydrate (60 mg/kg, i.p.). The sciatic nerve was surgically exposed at mid thigh level and crushed at 5 mm proximal to the trifurcation of the sciatic nerve. The nerve was crushed twice for 30 s with a haemostatic forceps with a 90-degree rotation between each crush. […] The loss of nerve function recovered progressively over a 4-5 week period after mechanical insult. Electromyographic recordings were assessed as described above.

Data set [2] in a line: Long term oral toxicity study, non-rodents. Format: in vivo. Conditions: high doses.
Another data set deals with BDNF mRNA. The data set can be described thus: BDNF mRNA expression in rat cortical neurones after 48 h incubation (rt RT-PCR). Format: cell-based. The settings on record: 10 μM, mean ± s.e.mean, n = 3. Here is the method: In a separate experiment, rat cortical neurones were cultured by modification of a method previously described (Eckenstein and Sofroniew, Journal of Neuroscience, 1983, 3, pp. 2286-2291). On day 8, the culture medium was changed to a medium containing vehicle (DMSO, 0.5%) or smilagenin (10 μM) for 48 h and the level of BDNF mRNA in the cortical neurones was assessed by rt RT-PCR.

Marks after values point to notes of the source that are not given here.

For `C[C@H]1CC[C@@]2(OC1)O[C@H]1C[C@H]3[C@@H]4CC[C@@H]5C[C@@H](O)CC[C@]5(C)[C@H]4CC[C@]3(C)[C@H]1[C@@H]2C` [Sarsasapogenin, sarsasapogenin], the “BDNF concentration (pg/ml)” value in the data set with BDNF is listed as 9.31 ± 0.15^++++,**** pg/ml. Further, the “Neurite length (% of control)” value in the data set on Rat cortical neurones (3 nM) is listed as 168.29 ± 6.12 % of control; with Rat cortical neurones (30 nM) it was 156.74 ± 4.06 % of control; in data set [1] (no inhibitor), 126.74 ± 5.76^++++ % of control; in data set [1] (with K252a (100 nM)), 93.12 ± 2.88 % of control. In addition, the “Neurones displaying neurites (%)” value with Rat cortical neurones (3 nM) is given as 52.40 ± 2.63 %; with Rat cortical neurones (30 nM) it was 57.32 ± 2.54 %. Moreover, in the data set with Rat sensory neurones (30 nM), the “Neuronal survival (% of control)” value is reported as 130.83 ± 1.75 % of control. For the same compound, the “Degenerated fibres (% of control)” value in the data set on C57b1/6 RJ mice (3 mg/kg/day oral) is recorded as 33.50 ± 12.60 % of control. In addition, the “Recovery of nerve function as measured by CMAP parameters (amplitude, latency, duration)” value with C57b1/6 RJ mice is recorded as “significantly improved the recovery of nerve function”. In data set [2] (39 weeks in non-rodents), the Long term toxicity result is reported as “without showing any signs of toxicity or adverse events”.
Consider `C[C@@H]1CC[C@@]2(OC1)O[C@H]1C[C@H]3[C@@H]4CC[C@@H]5C[C@@H](O)CC[C@]5(C)[C@H]4CC[C@]3(C)[C@H]1[C@@H]2C` [Smilagenin, smilagenin], for which the “Relative amount of BDNF mRNA (% of control)” value in the data set on BDNF mRNA is given as 103.9 ± 6.5 % of control. Also, in the data set on BDNF, the “BDNF concentration (pg/ml)” value is recorded as 4.20 ± 0.06****^,++++ pg/ml. Also, the “Neurite length (% of control)” value in the data set on Rat cortical neurones (3 nM) is recorded as 159.03 ± 4.91 % of control; in the data set on Rat cortical neurones (30 nM) it was 176.71 ± 6.34 % of control; in data set [1] (no inhibitor), 146.78 ± 6.75^++++ % of control; in data set [1] (with K252a (100 nM)), 94.36 ± 3.96 % of control; in data set [1] (with PD98059 (10 μM)), 120.27 ± 5.80 % of control. Moreover, the “Neurones displaying neurites (%)” value with Rat cortical neurones (3 nM) worked out at 53.84 ± 2.93 %; in the data set with Rat cortical neurones (30 nM), 53.46 ± 2.13 %. In addition, the “Neuronal survival (% of control)” value with Rat sensory neurones (300 nM) is 124.02 ± 7.64 % of control. Moreover, the “Degenerated fibres (% of control)” value in the data set on C57b1/6 RJ mice (0.3 mg/kg/day oral) is 16.70 ± 4.23 % of control; in the data set on C57b1/6 RJ mice (3 mg/kg/day oral), −8.10 ± 6.03 % of control. In addition, in the data set on C57b1/6 RJ mice, the “Recovery of nerve function as measured by CMAP parameters (amplitude, latency, duration)” value was “significantly improved the recovery of nerve function”. For the same compound, the Long term toxicity entry in data set [2] (up to 52 weeks in non-rodents) is reported as “without showing any signs of toxicity or adverse events”.
